Experimental data reported in US20030220266A1, “Method of treating a disease” (priority 2001, published 2003).
Entries after “also recorded” stand apart in the source; their conditions may differ.

Key:
Type in all cases: cell-based, human
[1] = test system: bFGF, VEGF, Ang-1 and Ang-2 expression in HeLa COX-1 Tet-Off cells; assay: Western blot of angiogenic factors after COX-1 overexpression; details: COX-1 overexpression up to 72 hrs
Text: (§1) The Tet-Off expression system we used was developed by Gossen and co-workers (38) to deliver doxycycline-regulated expression based on the high specificity of the Escherichia coli tet repressor-operator-doxycycline interaction. In the Tet-Off expression system each clonal cell line is used as its own control (cells cultured in the presence of DOX) and the overexpression of the integrated target gene is modulated solely by removing DOX from the culture medium. This eliminates the need for a control clonal cell line transfected with vector alone (as used with constitutive stable expression systems) thereby overcoming the inherent variation that arises from different sites of integration of DNA between different clones. HeLa Tet-Off cells containing the pTet-Off vector stably transfected and constitutively expressing the tetracycline-controlled transactivator tTA (composed of a fusion of the TetR and VP16 activation domain) were purchased from Clontech. The pBS(SK−)/PSHI cDNA containing the full length COX-1 gene (kindly supplied by Dr Stephen Prescott, University of Utah, Salt Lake City, Utah) was used as the template plasmid. The response plasmid pTRE2 (containing the minimal cytomegalovirus promoter containing Tet-operator sequences cloned upstream of the cDNA to be expressed) and the plasmid for antibiotic selection (pTK-hygromycin) for use with the Tet-Off system were purchased from Clontech. The COX-1 gene was excised from the template plasmid and ligated at the Bam H1 site of the pTRE2 vector. The orientation of the insert was verified by dideoxy DNA sequencing using the sequence specific primers: 5′-[…]-3′ (SEQ ID No 8) and 5′-[…]-3′ (SEQ ID No 9) (Clontech). Cells were plated in 12 well dishes in complete medium containing 10 μg/ml G418 per well and were allowed to attach and grow overnight. The pTRE2 vector containing the COX-1 gene (2 μg) was co-transfected with pTK-hygromycin (0.1 μg, which contains the hygromycin gene under control of the minimal thymidine kinase (TK) promoter) into the HeLa Tet-Off cell line at about 80% confluency using pfx-5 (Invitrogen, De Schelp, Netherlands) diluted in Optimem (Gibco). Cells were incubated for 4 hrs at 37° C. in 5% humidified CO2. Thereafter the medium was replaced with fresh complete medium containing no G418. Cells were allowed to grow for 72 hrs. Transfected cells were then seeded together with wild-type cells. Clones were selected against 200 μg/ml hygromycin in the presence of 1 μg/ml DOX. At least 50 hygromycin-resistant clones were picked using cloning cylinders. Clones were allowed to grow under continuous selection with hygromycin in the presence of DOX and then screened for the ability to express COX-1 in the presence and absence of DOX by immunoblot analysis. […] Unless otherwise stated, all clones were maintained uninduced in 1 μg/ml DOX, 200 μg/ml hygromycin and 100 μg/ml G418. COX-inhibition studies were conducted by growing cells in medium containing 3 μg/ml indomethacin or 10 μM NS-398.
(§2) Cells were seeded in 5 cm dishes and allowed to attach overnight. The following day, the cells were synchronised by incubating with serum-free medium for 24 hrs. Thereafter, the medium was replaced with fresh complete medium and the cells were grown in the presence or absence of DOX for 24, 48 and 72 hrs respectively. In parallel, cells were co-treated with indomethacin or NS-398. Cells were harvested by lysing in protein lysis buffer (150 mM NaCl, 10 mM Tris-HCl pH 7.4, 1 mM EDTA, 1% Triton X-100, 0.1% SDS). The protein content in the supernatant fraction was determined as described above. The clarified cell lysates (20 μg) were denatured and electrophoresed on 4-20% Tris-Glycine gels (NOVEX, Invitrogen).

[2] = test system: HeLa COX-1 Tet-Off cells; assay: PGE2 secretion into culture medium (ELISA) after COX-1 induction; details: 5 μg/ml arachidonic acid
Text: The Tet-Off expression system we used was developed by Gossen and co-workers (38) to deliver doxycycline-regulated expression based on the high specificity of the Escherichia coli tet repressor-operator-doxycycline interaction. In the Tet-Off expression system each clonal cell line is used as its own control (cells cultured in the presence of DOX) and the overexpression of the integrated target gene is modulated solely by removing DOX from the culture medium. This eliminates the need for a control clonal cell line transfected with vector alone (as used with constitutive stable expression systems) thereby overcoming the inherent variation that arises from different sites of integration of DNA between different clones. HeLa Tet-Off cells containing the pTet-Off vector stably transfected and constitutively expressing the tetracycline-controlled transactivator tTA (composed of a fusion of the TetR and VP16 activation domain) were purchased from Clontech. The pBS(SK−)/PSHI cDNA containing the full length COX-1 gene (kindly supplied by Dr Stephen Prescott, University of Utah, Salt Lake City, Utah) was used as the template plasmid. The response plasmid pTRE2 (containing the minimal cytomegalovirus promoter containing Tet-operator sequences cloned upstream of the cDNA to be expressed) and the plasmid for antibiotic selection (pTK-hygromycin) for use with the Tet-Off system were purchased from Clontech. The COX-1 gene was excised from the template plasmid and ligated at the Bam H1 site of the pTRE2 vector. The orientation of the insert was verified by dideoxy DNA sequencing using the sequence specific primers: 5′-[…]-3′ (SEQ ID No 8) and 5′-[…]-3′ (SEQ ID No 9) (Clontech). Cells were plated in 12 well dishes in complete medium containing 10 μg/ml G418 per well and were allowed to attach and grow overnight. The pTRE2 vector containing the COX-1 gene (2 μg) was co-transfected with pTK-hygromycin (0.1 μg, which contains the hygromycin gene under control of the minimal thymidine kinase (TK) promoter) into the HeLa Tet-Off cell line at about 80% confluency using pfx-5 (Invitrogen, De Schelp, Netherlands) diluted in Optimem (Gibco). Cells were incubated for 4 hrs at 37° C. in 5% humidified CO2. Thereafter the medium was replaced with fresh complete medium containing no G418. Cells were allowed to grow for 72 hrs. Transfected cells were then seeded together with wild-type cells. Clones were selected against 200 μg/ml hygromycin in the presence of 1 μg/ml DOX. At least 50 hygromycin-resistant clones were picked using cloning cylinders. Clones were allowed to grow under continuous selection with hygromycin in the presence of DOX and then screened for the ability to express COX-1 in the presence and absence of DOX by immunoblot analysis. […]

[3] = test system: COX-2, EP2 and EP4 expression in HeLa cells; assay: Real-time RT-PCR of COX-2, EP2 and EP4 in HeLa cells treated with seminal plasma; details: HeLa cells co-treated with seminal plasma and inhibitor
Protocol: In sexually active women growth and invasiveness of neoplastic cervical cells may be also under the direct influence of PGE present in seminal plasma. […] The expression of COX-2, EP2 and EP4, was measured by real-time RT-PCR.

[4] = test system: COX-1, COX-2 and PGES expression in HeLa COX-1 Tet-Off cells; assay: Western blot of COX-1, COX-2 and PGES expression after COX-1 induction; details: for effect on COX-1-mediated up-regulation of COX-2 expression / effect on COX-1-mediated up-regulation of PGES expression / effect on COX-1 overexpression: co-treatment of cells induced for 24, 48 and 72 hrs
Text: as §1, §2

[5] = test system: EP2/EP4 receptors in cervical tissue; assay: cAMP production in cervical tissues in response to exogenous PGE2 or forskolin; details: 300 nM PGE2 or 50 μM forskolin, 5 minutes, after overnight indomethacin
Protocol: Cervical tissues (n=6 squamous carcinoma, n=1 adenocarcinoma and n=5 normal cervix) were sectioned finely, divided equally into three aliquots and incubated overnight in Dulbecco's Modified Eagle Medium (DMEM) (Sigma), containing 10% foetal calf serum, 0.3 mg/ml L-glutamine, 100 IU penicillin and 100 μg streptomycin and 3 μg/ml indomethacin. […] Tissue sections were harvested-by centrifugation at 2000 g. The supernatant was discarded and the tissue homogenised in 0.1 M HCl. cAMP concentration and protein concentrations were determined as mentioned above

[6] = test system: cAMP-dependent PGE2-receptors in HeLa cells; assay: Real-time quantitative RT-PCR of PGE2 receptors after COX-1 overexpression; details: cells grown in medium containing indomethacin
Text: The Tet-Off expression system we used was developed by Gossen and co-workers (38) to deliver doxycycline-regulated expression based on the high specificity of the Escherichia coli tet repressor-operator-doxycycline interaction. In the Tet-Off expression system each clonal cell line is used as its own control (cells cultured in the presence of DOX) and the overexpression of the integrated target gene is modulated solely by removing DOX from the culture medium. This eliminates the need for a control clonal cell line transfected with vector alone (as used with constitutive stable expression systems) thereby overcoming the inherent variation that arises from different sites of integration of DNA between different clones. HeLa Tet-Off cells containing the pTet-Off vector stably transfected and constitutively expressing the tetracycline-controlled transactivator tTA (composed of a fusion of the TetR and VP16 activation domain) were purchased from Clontech. The pBS(SK−)/PSHI cDNA containing the full length COX-1 gene (kindly supplied by Dr Stephen Prescott, University of Utah, Salt Lake City, Utah) was used as the template plasmid. […]

[7] = test system: cervical carcinoma tissue and normal cervix; assay: Basal cAMP levels in cervical tissues cultured overnight
Protocol: Determination of Basal CAMP levels in cervical tissues. Initially, basal cAMP levels were measured in cervical tissue (n=7 squamous cell carcinomas and n=5 normal cervix; FIG. 12A). Carcinoma and normal cervical tissues were obtained on the day of surgery/biopsy, sectioned finely and divided equally into three aliquots. The tissue was transported at 4° C. and then incubated in 35 mm tissue culture dishes containing 2 ml of Dulbecco's Modified Eagle Medium (DMEM) (Sigma), containing 10% foetal calf serum, 0.3 mg/ml L-glutamine, 100 IU penicillin and 100 μg streptomycin for 1.5 hours. One aliquot of tissue was snap frozen to determine basal cAMP concentration in the tissue at the time of collection. The other two aliquots were incubated overnight at 37° C. in humidified 5% CO2 in the presence or absence of 3 μg/ml indomethacin [a dual COX enzyme inhibitor (24, 32)]. Subsequently, tissue sections were harvested by centrifugation at 2000 g. The supernatant was discarded and the tissue homogenised in 0.1 M HCl. cAMP concentration was quantified by ELISA using a cAMP kit (Biomol; Affiniti, Exeter, UK) as per the manufacturer's protocol and normalised to protein concentration of the homogenate, Protein concentrations were determined using protein assay kits (Bio-Rad, Hemel Hempstead, UK).

[8] = test system: cAMP-linked PGE2 receptors in HeLa COX-1 Tet-Off cells; assay: PGE2 stimulation and cAMP measurement in HeLa COX-1 Tet-Off cells; details: cells grown in medium containing indomethacin, COX-1 induced 48 hrs
Protocol: Cells (2×10^5) were plated in 6 well dishes containing 4 ml/well of complete medium containing DOX. Cells were allowed to attach overnight. The following day, the cells were synchronised by incubating with fresh medium containing no foetal bovine serum for 24 hrs. COX-1 Tet-Off cells were induced, by DOX withdrawal from the culture medium for 48 hrs at 37° C. in humidified 5% CO2 in the presence or absence of indomethacin. In parallel, control uninduced cells were supplemented daily with DOX. Thereafter the culture medium was removed and replaced with serum-free medium containing IBMX (Sigma) to a final concentration of 1 mM for 40 mins at 37° C. […] Following stimulation, the medium was removed and the cells lysed in 0.1M HCl. cAMP concentration was quantified by ELISA using a cAMP kit (Biomol, Affiniti, Exeter, UK) as per the manufacturer's protocol and normalised to protein concentration of the lysate. Protein concentrations were determined using protein assay kits (Bio-Rad).

[9] = test system: EP1 receptor in COX-1 Tet-Off HeLa cells; assay: Inositol phosphate accumulation (EP1 receptor activity); details: induced expression of COX-1 and PGE2 stimulation; data not shown
Text: No significant difference in basal cAMP production was detected in uninduced and induced cells (FIG. 6). […] The activity of EP1 receptor was investigated by measuring inositol phosphate accumulation (41).

[10] = COX-1 induced 48 hrs with inhibitor (3 μg/ml indomethacin or 10 μM NS-398), induced without inhibitor 272.2±18.8 nM
[11] = COX-1 induced 72 hrs with inhibitor (3 μg/ml indomethacin or 10 μM NS-398), induced without inhibitor 537±22.5 nM

SMILES	effect on COX-1 associated up-regulation of Ang-1 [1]	effect on COX-1 associated up-regulation of Ang-2 [1]	effect on COX-1 associated up-regulation of bFGF [1]	PGE2 levels in culture medium [2, 10]	PGE2 levels in culture medium [2, 11]	effect on seminal plasma up-regulation of EP2/EP4 receptor expression [3]	effect on COX-1-mediated up-regulation of COX-2 expression [4]	effect on COX-1-mediated up-regulation of PGES expression [4]	effect on COX-1 overexpression [4]	further results
CS(=O)(=O)Nc1ccc([N+](=O)[O-])cc1OC1CCCCC1 [NS-398]	partially reduced; also recorded: partially inhibited	partially reduced; also recorded: partially inhibited	partially reduced; also recorded: partially inhibited	132 ± 26.2 nM	268 ± 17 nM	partially abolished	No significant change; also recorded: Partial inhibition	Partial inhibition	no alteration	effect on COX-1 associated up-regulation of VEGF [1]: partially reduced; also recorded: partially inhibited; delay of induction of PGES by COX-1 overexpression ([4]; treatment of HeLa cells with NS-398): 24 h
C=C[C@@]1(C)CC(=O)[C@]2(O)[C@@]3(C)[C@@H](O)CCC(C)(C)[C@@H]3[C@H](O)[C@H](OC(C)=O)[C@@]2(C)O1 [forskolin]										fold induction of cAMP generation in cancer tissue [5]: 55.3±15.84 fold; fold induction of cAMP generation in normal cervix [5]: 9.18±1.59 fold
COc1ccc2c(c1)c(CC(=O)O)c(C)n2C(=O)c1ccc(Cl)cc1 [indomethacin]	abolished	abolished	abolished	62 ± 7 nM	76 ± 10.7 nM	abolished	inhibited; also recorded: abolished	inhibited; also recorded: abolished	no alteration	effect on COX-1 associated up-regulation of Ang-1 ([1]; listed as Indomethacin): inhibited; effect on COX-1 associated up-regulation of Ang-2 ([1]; listed as Indomethacin): inhibited; effect on COX-1 associated up-regulation of VEGF ([1]; listed as Indomethacin): inhibited; effect on COX-1 associated up-regulation of bFGF ([1]; listed as Indomethacin): inhibited; effect on COX-1 associated up-regulation of VEGF ([1]; listed as indormethacin): abolished; effect on up-regulation of the cAMP-dependent PGE2-receptors by COX-1 overexpression [6]: inhibited; cAMP concentration in carcinoma tissue ([7]; overnight culture in presence of indomethacin, without indomethacin 64.2±5.1): 2.59±0.64 pmol cAMP/mg protein; cAMP concentration in normal cervical tissue ([7]; overnight incubation in presence of indomethacin, without indomethacin 11.96±1.35): 4.0±0.7 pmol cAMP/mg protein; effect on elevated cAMP production in COX-1 overexpressing cells in response to PGE2 [8]: abolished
O=S(=O)(NCCNC/C=C/c1ccc(Br)cc1)c1cccc2cnccc12 [H-89]						partially abolished				
CCCCC[C@H](O)/C=C/[C@H]1[C@H](O)CC(=O)[C@@H]1C/C=C\CCCC(=O)O [PGE2, prostaglandin E2]										inositol phosphate accumulation [9]: No inositol phosphate accumulation above basal
